Results as given in patent publication US9573966B2, “Anti-cancer activity of novel bicyclic heterocycles” (Katholieke Universiteit Leuven, K.U.Leuven R&D, priority 2010, dated 2017).

Tests used:
HSB-2 cells = assay: Inhibition of HSB-2 leukemic cell line proliferation (WST-1); assay type: cell-based, human; details: cytotoxicity on HSB-2 cells, two days incubation, WST-1 read-out
Method in brief: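 HSB-2 human ALL cells, 50000/well in RPMI-1640 + 10% FCS, exposed to compounds 2 days at 37 °C, then WST-1 2 h, OD 450 nm. Proliferation scaled between untreated (max) and Triton X100 (min) controls; IC50 from ≥4-point curves, each point mean of ≥2 experiments.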

LNCaP cells = assay: Inhibition of LNCaP prostate carcinoma cell line proliferation (WST-1); assay type: cell-based; details: Homo sapiens, 48 h; cytotoxicity on LNCaP cells, two days incubation, WST-1 read-out
Description: LNCaP cell line, a prostate carcinoma cell line, was grown in RPMI-1640 medium (Lonza, Belgium) supplemented with 10% fetal calf serum (Hyclone, US) and antibiotics. Exponential growing phase cells were seed in flat bottom 96-well microplates (TTP, Switzerland) at 10000 cells per well in 200 μl of medium. The day after, 20 μl of compounds (in different concentrations) were added and incubated for two days at 37° C., 5% CO2. After incubation, 100 μl of supernatant were removed and 10 μl of WST-1 (Roche, Switzerland) were added. After 2 hour incubation at 37° C., 5% CO2, optical densities were measured at 450 nm. Proliferation is calculated with respect of control points (no compound and treatment with Triton X100 to have maximum and minimum proliferation data). The IC50 was determined from a graph with at least four points, each derived from the mean of at least 2 experiments. […] The results are shown in Table 3 for a number of compounds.

HL-60 cells = assay: Inhibition of HL-60 leukemic cell line proliferation (WST-1); assay type: cell-based, human; details: cytotoxicity on HL-60 cells, two days incubation, WST-1 read-out
Description: HL-60 cell line, a human promyelocytic leukemia (ATCC; CCL-240) cell line, was grown in RPMI-1640 medium (Lonza, Belgium) supplemented with 10% fetal calf serum (Hyclone, US) and antibiotics. Exponential growing phase cells were seed in flat bottom 96-well microplates (TTP, Switzerland) at 50000 cells per well in 220 μl of medium with compounds (in different concentrations) and incubated for two days at 37° C., 5% CO2. After incubation, 100 μl of supernatant were removed and 10 μl of WST-1 (Roche, Switzerland) were added. After 2 hour incubation at 37° C., 5% CO2, optical densities were measured at 450 nm. Proliferation is calculated with respect of control points (no compound and treatment with Triton X100 to have maximum and minimum proliferation data). The IC50 was determined from a graph with at least four points, each derived from the mean of at least 2 experiments. […] The results are shown in Table 2 for a number of compounds.

hu EOL-1 leukemia = details: Example 222 p.o. once daily, cyclophosphamide once i.p.
Description: The test compound (Example 222) was dissolved in DMSO (5% final concentration) and further solubilised in 0.5% Tween 80 in 1% methylcellulose. The resulting suspension was warmed for 10 minutes to 37° C. in an ultrasound water bath to obtain a homogeneous formulation for oral administration. At day 0, 24 male NSG mice received a s.c. inoculum of 10^7 EOL-1 cells taken from in vitro culture and mixed with 50% matrigel. At day 10 tumours were palpable, mice were randomized into three treatment groups and therapy initiated. The test compound (Example 222) and the vehicle were administered orally (p.o.) once daily until the end of the experiment. Cyclophosphamide was administered only once intraperitoneally (i.p.).

Structure (SMILES) | IC50 (HSB-2 cells; Homo sapiens, HSB2, 48 h) | IC50 (HL-60 cells; Homo sapiens, 48 h) | also measured
Cc1cccc(OCC(=O)N2CCN(c3nc(N)nc4sc(-c5cccnc5)nc34)CC2)c1 [Example 275, 1-(4-(5-amino-2-(pyridin-3-yl)thiazolo[5,4-d]pyrimidin-7-yl)piperazin-1-yl)-2-(m-tolyloxy)ethanone] | 0.07 µM | 0.05 µM | IC50 (LNCaP cells): 1.09 µM
COc1ccc(OCC(=O)N2CCN(c3nc(N)nc4sc(-c5cccnc5)nc34)CC2)cc1 [Example 271, 1-(4-(5-amino-2-(pyridin-3-yl)thiazolo[5,4-d]pyrimidin-7-yl)piperazin-1-yl)-2-(4-methoxyphenoxy)ethanone] | 0.06 µM | 0.1 µM | IC50 (LNCaP cells): > 100 µM
Nc1nc(N2CCN(C(=O)Nc3ccccc3)CC2)c2nc(-c3cccnc3)sc2n1 [Example 440, 4-(5-amino-2-(pyridin-3-yl)thiazolo[5,4-d]pyrimidin-7-yl)-N-phenylpiperazine-1-carboxamide] | 0.058 µM | 0.064 µM | IC50 (LNCaP cells): 17.1 µM
O=P1(N(CCCl)CCCl)NCCCO1 (stereo not drawn) [Cyclophosphamide, reference compound] |  |  | body weight loss (hu EOL-1 leukemia; EOL-1 xenograft in NSG mice): 6%; tolerability (hu EOL-1 leukemia; EOL-1 xenograft in NSG mice): well tolerated; effect on tumour growth (tumour volume) relative to vehicle (hu EOL-1 leukemia; s.c. EOL-1 tumours in NSG mice, therapy from day 10 to day 21): highly significant (p<0.05) inhibition of tumour growth
Cc1cccc(NC(=O)N2CCN(c3nc(N)nc4sc(-c5ccccc5)nc34)CC2)c1 [Example 220, 4-(5-amino-2-phenylthiazolo[5,4-d]pyrimidin-7-yl)-N-m-tolylpiperazine-1-carboxamide] | 0.77 µM | 0.92 µM | IC50 (LNCaP cells): 11.2 µM
COc1ccc(OCC(=O)N2CCN(c3nc(N)nc4sc(-c5ccccc5)cc34)CC2)cc1 [Example 369, 1-(4-(2-amino-6-phenylthieno[2,3-d]pyrimidin-4-yl)piperazin-1-yl)-2-(4-methoxyphenoxy)ethanone] | 5.87 µM | 6.05 µM | 
Nc1nc(N2CCN(C(=O)COc3ccc(Cl)cc3)CC2)c2nc(-c3ccc(Cl)cc3)[nH]c2n1 [Example 392, 1-(4-(2-amino-8-(4-chlorophenyl)-9H-purin-6-yl)piperazin-1-yl)-2-(4-chlorophenoxy)ethanone] | 2.23 µM | 3.14 µM | 
Nc1nc(N2CCN(C(=O)COc3ccc(Cl)cc3)CC2)c2nc(-c3cccnc3)sc2n1 [Example 121a, 5-amino-7-[4-(4-chlorophenoxyacetyl)piperazin-1-yl]-2-(pyridine-3-yl)thiazolo[5,4-d]pyrimidine] | 0.2 µM | 0.23 µM | IC50 (LNCaP cells): 48 µM
Nc1nc(N2CCN(C(=O)COc3ccc(Cl)cc3)CC2)c2nc(C3CCCCC3)sc2n1 [Example 120, 5-amino-7-[4-(4-chlorophenoxyacetyl)piperazin-1-yl]-2-cyclohexylthiazolo[5,4-d]pyrimidine] | 4.87 µM | > 10 µM | 
Cc1nc2c(N3CCN(C(=O)COc4ccc(Cl)cc4)CC3)nc(N)nc2[nH]1 [Example 400, 1-(4-(2-amino-8-methyl-9H-purin-6-yl)piperazin-1-yl)-2-(4-chlorophenoxy)ethanone] | 2.06 µM | 2.98 µM | 
Nc1nc(N2CCN(C(=O)COc3cccc(Cl)c3)CC2)c2nc(-c3ccc(F)cc3)sc2n1 [Example 214, 1-(4-(5-amino-2-(4-fluorophenyl)thiazolo[5,4-d]pyrimidin-7-yl)piperazin-1-yl)-2-(3-chlorophenoxy)ethanone] | 0.73 µM | 6.02 µM | 
Nc1nc(N2CCN(C(=O)COc3ccc(Cl)cc3)CC2)c2nc(C3CC3)[nH]c2n1 [Example 398, 1-(4-(2-amino-8-cyclopropyl-9H-purin-6-yl)piperazin-1-yl)-2-(4-chlorophenoxy)ethanone] | 4.78 µM | 6.08 µM | 
Cc1ccc(-c2nc3c(N4CCN(C(=O)COc5ccc(Cl)cc5)CC4)nc(N)nc3[nH]2)cc1 [Example 396, 1-(4-(2-amino-8-p-tolyl-9H-purin-6-yl)piperazin-1-yl)-2-(4-chlorophenoxy)ethanone] | 0.49 µM | 4.97 µM | 
CC(C)(Oc1ccc(Cl)cc1)C(=O)N1CCN(c2nc(N)nc3sc(-c4cccnc4)nc23)CC1 [Example 274, 1-(4-(5-amino-2-(pyridin-3-yl)thiazolo[5,4-d]pyrimidin-7-yl)piperazin-1-yl)-2-(4-chlorophenoxy)-2-methylpropan-1-one] |  |  | IC50 (LNCaP cells): 18.2 µM
Cc1cccc(NC(=O)N2CCN(c3nc(N)nc4sc(-c5cccnc5)nc34)CC2)c1 [Example 276, 4-(5-amino-2-(pyridin-3-yl)thiazolo[5,4-d]pyrimidin-7-yl)-N-m-tolylpiperazine-1-carboxamide] | 0.05 µM | 0.06 µM | IC50 (LNCaP cells): 3.05 µM
CCCc1nc2c(N3CCN(C(=O)COc4ccc(Cl)cc4)CC3)nc(N)nc2[nH]1 [Example 397, 1-(4-(2-amino-8-propyl-9H-purin-6-yl)piperazin-1-yl)-2-(4-chlorophenoxy)ethanone] | 4.51 µM | 1.26 µM | 
Nc1nc(N2CCN(C(=O)COc3ccc(Cl)cc3)CC2)c2nc(SC3CCCC3)[nH]c2n1 [Example 429, 1-(4-(2-amino-8-(cyclopentylthio)-9H-purin-6-yl)piperazin-1-yl)-2-(4-chlorophenoxy)ethanone] | 7.87 µM | > 10 µM | 
CSc1nc2c(N3CCN(C(=O)COc4ccc(Cl)cc4)CC3)nc(N)nc2n1C [Example 428, 1-(4-(2-amino-9-methyl-8-(methylthio)-9H-purin-6-yl)piperazin-1-yl)-2-(4-chlorophenoxy)ethanone] | 0.75 µM | 1.59 µM | 
Nc1nc(N2CCN(C(=O)Nc3ccc(Cl)cc3)CC2)c2cc(-c3ccccc3)sc2n1 [Example 331, 4-(2-amino-6-phenylthieno[2,3-d]pyrimidin-4-yl)-N-(4-chlorophenyl)piperazine-1-carboxamide] | > 10 µM | > 10 µM | 
CCCSc1nc2c(N3CCN(C(=O)COc4ccc(Cl)cc4)CC3)nc(N)nc2[nH]1 [Example 425, 1-(4-(2-amino-8-(propylthio)-9H-purin-6-yl)piperazin-1-yl)-2-(4-chlorophenoxy)ethanone] | 4.57 µM | 8.83 µM | 
Cc1cccc(NC(=O)N2CCN(c3nc(N)nc4oc(CCc5ccc(F)cc5)nc34)CC2)c1 [Example 196, 5-amino-2-[2-(4-fluorophenyl)ethyl]-7-(4-m-tolylcarbamoylpiperazin-1-yl)-oxazolo[5,4-d]pyrimidine] | > 10 µM | > 10 µM | 
Nc1nc(N2CCN(CC(=O)Nc3cccnc3)CC2)c2nc(-c3ccc(F)cc3)[nH]c2n1 [Example 412] |  |  | IC50 (HSB-2 cells): > 10 µM; IC50 (HL-60 cells): > 10 µM
Nc1nc(N2CCN(C(=O)COc3ccc(Br)cc3)CC2)c2nc(-c3ccc(F)cc3)sc2n1 [Example 128, 5-amino-2-(4-fluorophenyl)-7-(4-[2-(4-bromophenoxy)acetyl]-piperazin-1-yl)-thiazolo[5,4-d]pyrimidine] |  | 6.47 µM | IC50 (HSB-2 cells): 5.62 µM
CCC(c1ccc(F)cc1)c1nc2c(N3CCN(C(=O)COc4ccc(Cl)cc4)CC3)nc(N)nc2s1 (stereo not drawn) [Example 150, 5-amino-2-[1-(4-fluorophenyl)propyl]-7-(4-[2-(4-chlorophenoxy)acetyl]piperazin-1-yl)thiazolo[5,4-d]pyrimidine] | > 10 µM | > 10 µM | 
